This data set is described as follows: Pharmacokinetics of sinomenine in rat plasma after oral administration of sinomenine monomer and Sinomenium acutum extract. The settings on record: male, Wistar.

In general, AUC(0-inf) refers to total exposure, with the tail of the curve extrapolated. A higher AUC(0-inf) goes with more exposure. A word on the AUC(0-t): it is exposure summed from dosing to a finite time, without extrapolation to infinity. Low values mean low exposure, high ones high exposure. In general, CL/F refers to the apparent clearance, not corrected for the fraction that reaches the circulation. As usually defined, the Cmax is the highest concentration seen after dosing. The MRT inf is the average time that molecules of a dose stay in the body. A word on the Tmax: it is the time from dosing to the highest level. For orientation: half-life means the time needed for the level to fall by half in the phase considered. Higher therefore signals slow loss. Consider `COC1=C[C@H]2[C@H]3Cc4ccc(OC)c(O)c4[C@@]2(CCN3C)CC1=O` [Sinomenine, 7,8-didehydro-4-hydroxy-3,7-dimethoxy-17-methylmorphinane-6-one], for which, under “30 mg/kg”, the AUC(0-inf) came out at 32.8 ± 5.37 µg·h/mL, the AUC(0-t) amounted to 29.2 ± 4.06 µg·h/mL, the CL/F is 0.935 L/h/kg and the maximum concentration (Cmax) turned out to be 5.24 ± 0.39 µg/mL. Besides, under “30 mg/kg”, the mean residence time MRT inf was determined as 7.3 ± 0.889 h, the time of peak concentration (Tmax) came out at 1.08 ± 0.204 h and the half-life was 4.88 ± 0.635 h. Where the note is “60 mg/kg”, this compound gave an AUC(0-inf) of 94 ± 11.2 µg·h/mL, an area under the curve AUC(0-t) of 78.9 ± 5.13 µg·h/mL, an apparent clearance (CL/F) of 0.646 L/h/kg and a Cmax of 11.6 ± 0.942 µg/mL. Moreover, under “60 mg/kg”, the MRT inf worked out at 8.8 ± 1.91 h, the Tmax turned out to be 1.5 ± 0.316 h and the half-life was 5.77 ± 1.59 h.
